The target in one experiment is T1, human CRHR1 (Homo sapiens, UniProt P34998).
T1 construct: expressed in transfected cells
T1 sequence (P34998 24-415): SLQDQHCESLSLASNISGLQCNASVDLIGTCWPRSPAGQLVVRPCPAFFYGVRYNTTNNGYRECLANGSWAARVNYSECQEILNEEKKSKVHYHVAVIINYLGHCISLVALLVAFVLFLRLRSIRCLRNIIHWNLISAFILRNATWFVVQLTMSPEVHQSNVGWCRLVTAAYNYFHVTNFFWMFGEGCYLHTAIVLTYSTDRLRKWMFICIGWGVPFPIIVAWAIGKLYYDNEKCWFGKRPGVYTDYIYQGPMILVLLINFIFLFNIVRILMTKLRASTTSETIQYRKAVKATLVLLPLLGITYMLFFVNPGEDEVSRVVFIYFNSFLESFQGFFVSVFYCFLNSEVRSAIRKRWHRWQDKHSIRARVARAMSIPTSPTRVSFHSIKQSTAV
The experiment is described as follows: Human CRHR1 cAMP assay (HTRF) in HEK293 cells stably expressing human CRHR1. In kind it is cell-based. To be noted: HEK293 cells overexpressing human CRHR1; relative EC50, maximum 66 nM human UCN1; mean ± SE; read-out: hCRHR1 cAMP EC50 (pM, ± SE). The method, then:
The corticotropin-releasing hormone (CRH) receptor 1 and 2 (CRHR1 and CRHR2) are GPCRs that were functionally coupled to Gs proteins. Stimulation of these receptors results in an increased production of intracellular cAMP, which can be detected using standard in vitro technologies. In vitro activity of peptides was measured by the amount of cAMP formed in human CRHR1 and CRHR2 overexpressed cells.
Human CRHR1 and CRHR2 receptors were stably expressed in human embryonic kidney cells (HEK293) under control of a pcDNA expression vector. The HEK293 cell line was cultured in DMEM 1× (Gibco, 93-0152DK) supplemented with 10% FBS, 1 mM sodium pyruvate, 1×MEM NEAA, 1× GlutaMAX and 10 mM HEPES. The plasmids of human CRHR1-pQCXIP (T7364) and human CRHR2b-R2683puro (T16761) DNA were transfected into HEK293 cells using Lipo fectAMINE 3000 Transfection reagent (Invitrogen, L3000001). After 20 days under selection, the mRNA levels from different clones were measured to confirm the expression of human CRHR1 and CRHR2 genes. To determine the function of over-expressed CRHR cells, the intracellular cAMP levels in response to human UCN1 and UCN2 were measured and compared to the expression of CRHR1 and CRHR2 mRNA in each clone.
Human CRHR1 cells were cultured in DMEM 1× (Gibco, 93-0152DK) supplemented with 10% FBS, 1 mM sodium pyruvate, 1×MEM NEAA, 1×GlutaMAX, 10 mM HEPES, and 800 μg/ml G418. Human CRHR2 cells were cultured at the same media (DMEM 1×, 10% FBS, 1 mM sodium pyruvate, 1×MEM NEAA, 1×GlutaMAX, 10 mM HEPES) in the presence of 0.5 ug/mL puromycin. Cultured cells were grown to 90% confluency and harvested. The cells were frozen at 10×10e6/ml in a mixture of […] fetal bovine serum plus 7% DMSO and stored in liquid nitrogen until use.
On the day of the assay, the frozen cells were thawed and diluted in assay buffer (Phenol Red free MEM (Corning, 17-305-CV, lot #32121010), 0.1% Casein (Sigma C4765, lot #SLCG2120), 5 mM HEPES pH 7.4 containing 0.25 mM IBMX). 10 ul of human CRHR1 cells (25,000 cells) or 10 μL of human CRHR2 cells (5,000 cells) were dispensed into each well of white poly-D-lysine coated 384-well plates (Corning cat #354661). Test compounds diluted in DMSO were added (200 nL/well) in a 1:3 dilution series using ECHO acoustic liquid handler (Beckman). The mixture of cells and test compounds were incubated at 37° C. for 1 hour for the hCRHR1 plate, while the CRHR2 plates were incubated at room temperature for 30 min.
The amount of intracellular cAMP was quantitated using HTRF technology (Homogeneous Time Resolved Fluorescence; Cisbio) as per vendor instructions. Briefly, 10 uL CAMP-d2 conjugate and 10 uL anti-CAMP-cryptate conjugate in lysis buffer were incubated with the treated cells at room temperature for 60 min. The HTRF signal was immediately detected using an Envision plate reader (Perkin-Elmer) to calculate the ratio of fluorescence at 665 to 620 nm.
Raw fluorescence data for concentration curves of the peptides in Table 2 and Table 3 were converted to cAMP amount (pmol/well) using a cAMP standard curve generated for each experiment.
For orientation: Changes in cAMP serve as a functional read-out for many G protein-coupled receptors.

The next experiment deals with T2, human CRHR2 (Homo sapiens, UniProt Q13324).
T2 construct: expressed in transfected cells
T2 sequence (Q13324 1-438 isoform Q13324-2): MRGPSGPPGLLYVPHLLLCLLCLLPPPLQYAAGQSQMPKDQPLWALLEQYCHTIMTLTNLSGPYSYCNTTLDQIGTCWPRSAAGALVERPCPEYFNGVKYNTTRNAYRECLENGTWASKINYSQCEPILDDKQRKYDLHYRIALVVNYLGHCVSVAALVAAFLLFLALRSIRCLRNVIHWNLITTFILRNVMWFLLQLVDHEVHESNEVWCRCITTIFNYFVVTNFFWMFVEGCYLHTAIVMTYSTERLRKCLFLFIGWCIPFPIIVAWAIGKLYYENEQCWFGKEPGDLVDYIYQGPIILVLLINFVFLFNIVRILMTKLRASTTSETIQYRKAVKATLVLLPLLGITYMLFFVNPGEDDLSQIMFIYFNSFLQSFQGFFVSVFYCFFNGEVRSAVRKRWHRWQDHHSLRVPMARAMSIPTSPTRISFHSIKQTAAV
The experiment can be described thus: Human CRHR2 cAMP assay (HTRF) in HEK293 cells stably expressing human CRHR2. In kind it is cell-based. To be noted: HEK293 cells overexpressing human CRHR2; relative EC50, maximum 10 nM human UCN2; mean ± SE; read-out: hCRHR2 cAMP EC50 (pM, ± SE). In short, it runs like this:
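Stably expressing HEK293 clones received peptide concentration series in phosphodiesterase-inhibited buffer (0.25 mM IBMX, pH 7.4). After receptor-specific incubation (CRHR1 1 h at 37° C; CRHR2 30 min at room temperature), cells were lysed with HTRF cAMP reagents for 60 min and the 665/620 nm ratio recorded.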

From patent US20250163119A1, “COMPOUNDS FOR THE TREATMENT OF DIABETES OR OBESITY” (Eli Lilly and Company, priority 2023, published 2025) come the findings set out here.

*1 amine or outer side, *2 acyl side, *3 side chain or, on linkers, in order; H or OH if unused. Where a SMILES comes first, the peptide text is derived from it. Side-chain parts run from the residue outwards. [ ]: non-standard residue; d: D form. The star is where a group is joined. C20 diacid = O=C(O)CCCCCCCCCCCCCCCCCCC(=O)*; γGlu = O=C(O)[C@H](CCC(=O)[*:2])N[*:1]; εLys = N[C@@H](CCCCN[*:1])C(=O)[*:2]; αMeL = CC(C)C[C@](C)(N)C(=O)O Some results are limits rather than exact numbers.

For orientation: EC50 means the midpoint of the concentration-response curve. As for `CC[C@H](C)[C@H](NC(C)=O)C(=O)N[C@H](C(=O)N[C@H](C(=O)N[C@@H](CO)C(=O)N[C@@](C)(CC(C)C)C(=O)N[C@@H](CC(=O)O)C(=O)N[C@@H](C(=O)N1CCC[C@H]1C(=O)N[C@H](C(=O)NCC(=O)N[C@@](C)(CC(C)C)C(=O)N[C@@H](CC(C)C)C(=O)N[C@@H](CCC(N)=O)C(=O)N[C@H](C(=O)N[C@@H](CCCCN)C(=O)N[C@@H](CC(C)C)C(=O)N[C@@H](CCC(=O)O)C(=O)N[C@@H](CCC(N)=O)C(=O)N[C@@H](CCC(=O)O)C(=O)N[C@@H](CCCNC(=N)N)C(=O)N[C@@H](C)C(=O)N[C@@H](CCC(=O)O)C(=O)N[C@@H](CCCCN)C(=O)N[C@@H](C)C(=O)N[C@@H](CCCNC(=N)N)C(=O)N[C@@H](CCC(N)=O)C(=O)N[C@@H](CCC(N)=O)C(=O)N[C@@H](C)C(=O)N[C@@H](CCCCNC(=O)CC[C@H](NC(=O)CC[C@H](NC(=O)[C@@H](N)CCCCNC(=O)CCCCCCCCCCCCCCCCCCC(=O)O)C(=O)O)C(=O)O)C(=O)N[C@@H](CCC(=O)O)C(=O)N[C@@H](CC(N)=O)C(=O)N[C@H](C(=O)N[C@@H](CCC(=O)O)C(=O)N[C@H](C(=O)N[C@@H](CC(C)C)C(=O)N[C@@H](C)C(=O)N[C@@H](CCC(N)=O)C(=O)N[C@H](C(N)=O)C(C)C)[C@@H](C)CC)[C@@H](C)O)[C@@H](C)CC)[C@@H](C)O)C(C)C)[C@@H](C)O)C(C)C` [SEQ ID NO: 38, Ac-IVTS αMeL D (D-Val) PTG αMeL LQIKLEQERAEKARQQAK(γE-γE-ϵK-CO-(CH2)18-CO2H)ENTEILAQV-NH2] (Ac-IVTS[αMeL]D[dV]PTG[αMeL]LQIKLEQERAEKARQQAK([γGlu-γGlu-εLys-C20 diacid])ENTEILAQV-NH2), the half-maximal effective concentration (EC50) is 1.1e+06 pM on human CRHR1 and 6.3 ± 2.1 pM on human CRHR2.
For `CC[C@H](C)[C@H](NC(C)=O)C(=O)N[C@H](C(=O)N[C@H](C(=O)N[C@@H](CO)C(=O)N[C@@](C)(CC(C)C)C(=O)N[C@@H](CC(=O)O)C(=O)N[C@@H](C(=O)N1CCC[C@H]1C(=O)N[C@H](C(=O)NCC(=O)N[C@@](C)(CC(C)C)C(=O)N[C@@H](CC(C)C)C(=O)N[C@@H](CCC(N)=O)C(=O)N[C@H](C(=O)N[C@@H](CCCCN)C(=O)N[C@@H](CC(C)C)C(=O)N[C@@H](CCC(=O)O)C(=O)N[C@@H](CCC(N)=O)C(=O)N[C@@H](CCC(=O)O)C(=O)N[C@@H](CCCNC(=N)N)C(=O)N[C@@H](C)C(=O)N[C@@H](CCC(=O)O)C(=O)N[C@@H](CCCCN)C(=O)N[C@@H](C)C(=O)N[C@@H](CCCNC(=N)N)C(=O)N[C@@H](CCC(N)=O)C(=O)N[C@@H](CCC(N)=O)C(=O)N[C@@H](C)C(=O)N[C@@H](CCCCNC(=O)CC[C@H](NC(=O)[C@@H](N)CCCCNC(=O)CC[C@H](NC(=O)CCCCCCCCCCCCCCCCCCC(=O)O)C(=O)O)C(=O)O)C(=O)N[C@@H](CCC(=O)O)C(=O)N[C@@H](CC(N)=O)C(=O)N[C@H](C(=O)N[C@@H](CCC(=O)O)C(=O)N[C@H](C(=O)N[C@@H](CC(C)C)C(=O)N[C@@H](C)C(=O)N[C@@H](CCC(N)=O)C(=O)N[C@H](C(N)=O)C(C)C)[C@@H](C)CC)[C@@H](C)O)[C@@H](C)CC)[C@@H](C)O)C(C)C)[C@@H](C)O)C(C)C` [SEQ ID NO: 39, Ac-IVTS αMeL D (D-Val) PTG αMeL LQIKLEQERAEKARQQAK(γE-ϵK-γE-CO-(CH2)18-CO2H)ENTEILAQV-NH2] (Ac-IVTS[αMeL]D[dV]PTG[αMeL]LQIKLEQERAEKARQQAK([γGlu-εLys-γGlu-C20 diacid])ENTEILAQV-NH2), in that order: 3.7e+06 pM and 7.3 ± 0.8 pM.
For `CC[C@H](C)[C@H](NC(C)=O)C(=O)N[C@H](C(=O)N[C@H](C(=O)N[C@@H](CO)C(=O)N[C@@](C)(CC(C)C)C(=O)N[C@@H](CC(=O)O)C(=O)N[C@@H](C(=O)N1CCC[C@H]1C(=O)N[C@H](C(=O)NCC(=O)N[C@@](C)(CC(C)C)C(=O)N[C@@H](CC(C)C)C(=O)N[C@@H](CCC(N)=O)C(=O)N[C@H](C(=O)N[C@@H](CCCCN)C(=O)N[C@@H](CC(C)C)C(=O)N[C@@H](CCC(=O)O)C(=O)N[C@@H](CCC(N)=O)C(=O)N[C@@H](CCC(=O)O)C(=O)N[C@@H](CCCNC(=N)N)C(=O)N[C@@H](C)C(=O)N[C@@H](CCC(=O)O)C(=O)N[C@@H](CCCCN)C(=O)N[C@@H](C)C(=O)N[C@@H](CCCNC(=N)N)C(=O)N[C@@H](CCC(N)=O)C(=O)N[C@@H](CCC(N)=O)C(=O)N[C@@H](C)C(=O)N[C@@H](CCCCNC(=O)CNC(=O)[C@H](CCCCN)NC(=O)[C@H](CCC(=O)O)NC(=O)[C@H](CCCCN)NC(=O)[C@H](CCC(=O)O)NC(=O)[C@H](CCCCN)NC(=O)[C@H](CCC(=O)O)NC(=O)CC[C@H](NC(=O)CCCCCCCCCCCCCCCCCCC(=O)O)C(=O)O)C(=O)N[C@@H](CCC(=O)O)C(=O)N[C@@H](CC(N)=O)C(=O)N[C@H](C(=O)N[C@@H](CCC(=O)O)C(=O)N[C@H](C(=O)N[C@@H](CC(C)C)C(=O)N[C@@H](C)C(=O)N[C@@H](CCC(N)=O)C(=O)N[C@H](C(N)=O)C(C)C)[C@@H](C)CC)[C@@H](C)O)[C@@H](C)CC)[C@@H](C)O)C(C)C)[C@@H](C)O)C(C)C` [SEQ ID NO: 43, Ac-IVTS αMeL D (D-Val) PTG αMeL LQIKLEQERAEKARQQAK(GKEKEKE-γE-CO-(CH2)18-CO2H)ENTEILAQV-NH2], in that order: more than 1e+07 pM and 7.9 ± 1.3 pM.
